The values below come from patent US7544694B2, “Substituted diaza-spiro-[5.5]-undecane derivatives and their use as neurokinin antagonists” (Janssen Pharmaceutica N.V., priority 2004, dated 2009).

What all share (assay type): cell-based
In assay [1] the target is NK1 (Homo sapiens, UniProt P25103). The assay is described as follows: Signal transduction (ST), intracellular Ca++ (FLIPR), functional NK1 antagonistic activity. The conditions noted are these: antagonist, read-out: NK1 pIC50 (converted). In a few lines:
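Confluent cells were loaded with 2 μM Fluo3 for 1 h at 37° C, then washed into Krebs buffer pH 7.4 with 1.25 mM CaCl2 and 2.5 mM probenecid. Antagonists were preincubated 20 min at RT before agonist addition. Peak Ca++ transients were read by FLIPR, with EC50 or IC50 from sigmoidal non-linear regression.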

Assay [2] addresses T1, NK2 (Homo sapiens, UniProt P21452).
T1 sequence (P21452 1-398): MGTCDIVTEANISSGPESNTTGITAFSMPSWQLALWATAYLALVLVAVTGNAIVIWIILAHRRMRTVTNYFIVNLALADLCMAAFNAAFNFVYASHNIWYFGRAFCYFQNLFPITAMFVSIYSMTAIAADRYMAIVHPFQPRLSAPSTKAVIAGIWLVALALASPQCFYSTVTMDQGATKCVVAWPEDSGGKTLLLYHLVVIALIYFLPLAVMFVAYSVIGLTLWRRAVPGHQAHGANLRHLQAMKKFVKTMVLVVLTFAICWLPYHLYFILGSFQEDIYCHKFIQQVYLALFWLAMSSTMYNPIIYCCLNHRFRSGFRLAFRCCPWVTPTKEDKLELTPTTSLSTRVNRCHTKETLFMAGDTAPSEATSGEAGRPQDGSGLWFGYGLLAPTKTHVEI
The assay is described as follows: Signal transduction (ST), intracellular Ca++ (FLIPR), NK2. The note with it: antagonist, read-out: NK2 pIC50 (converted).

Assay [3] deals with T2, NK3 (Homo sapiens, UniProt P29371).
T2 sequence (P29371 1-465): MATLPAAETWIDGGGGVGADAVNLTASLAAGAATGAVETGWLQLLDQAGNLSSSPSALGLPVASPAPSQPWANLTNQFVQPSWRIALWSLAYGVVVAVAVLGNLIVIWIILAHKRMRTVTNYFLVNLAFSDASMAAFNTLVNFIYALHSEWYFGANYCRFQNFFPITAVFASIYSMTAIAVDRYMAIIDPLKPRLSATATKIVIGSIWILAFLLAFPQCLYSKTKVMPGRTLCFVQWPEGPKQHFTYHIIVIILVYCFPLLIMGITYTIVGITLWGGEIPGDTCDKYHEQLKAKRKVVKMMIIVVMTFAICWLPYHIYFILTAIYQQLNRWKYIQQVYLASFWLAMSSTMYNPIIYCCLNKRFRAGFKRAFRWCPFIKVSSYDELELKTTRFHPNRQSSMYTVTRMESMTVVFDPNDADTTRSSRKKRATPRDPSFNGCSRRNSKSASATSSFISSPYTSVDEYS
The assay is described as follows: Signal transduction (ST), intracellular Ca++ (FLIPR), NK3. The conditions noted are these: antagonist, read-out: NK3 pIC50 (converted).

NK1, sequence (P25103 whole entry): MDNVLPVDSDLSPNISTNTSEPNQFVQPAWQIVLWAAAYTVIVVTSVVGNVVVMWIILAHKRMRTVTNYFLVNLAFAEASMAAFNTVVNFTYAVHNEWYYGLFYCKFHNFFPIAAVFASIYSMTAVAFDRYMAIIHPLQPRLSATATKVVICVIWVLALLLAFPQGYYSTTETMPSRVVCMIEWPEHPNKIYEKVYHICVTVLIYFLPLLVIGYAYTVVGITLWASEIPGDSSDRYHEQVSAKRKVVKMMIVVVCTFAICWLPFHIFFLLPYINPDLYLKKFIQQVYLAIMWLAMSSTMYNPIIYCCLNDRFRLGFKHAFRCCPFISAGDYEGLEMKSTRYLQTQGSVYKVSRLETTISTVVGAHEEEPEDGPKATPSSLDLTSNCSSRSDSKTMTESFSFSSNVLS

In the case of `O=C(C1CCN(C(=O)c2cc(C(F)(F)F)cc(C(F)(F)F)c2)C(Cc2ccccc2)C1)N1CCC2(CCN(Cc3ccccc3)CC2)CC1` (stereo not drawn) [Compound 185], the IC50 in assay [1] is 81.3 nM; in assay [2], 5500 nM; in assay [3], more than 10000 nM.

Regarding `O=C(C1CC1)N1CCC2(CC1)CCN(C(=O)[C@H]1CCN(C(=O)c3cc(C(F)(F)F)cc(C(F)(F)F)c3)[C@H](Cc3ccccc3)C1)CC2` [Compound 186], the IC50 in assay [1] was 17 nM; in assay [2], 5010 nM; in assay [3] it was 5370 nM.

In the case of `O=C(C1CCOC1)N1CCC2(CC1)CCN(C(=O)[C@H]1CCN(C(=O)c3cc(C(F)(F)F)cc(C(F)(F)F)c3)[C@H](Cc3ccccc3)C1)CC2` (stereo partly drawn) [Compound 187], the IC50 in assay [1] was 20 nM; in assay [2], 7080 nM; in assay [3], more than 10000 nM.

With `CC(C)(C)OC(=O)N1CCCC1C(=O)N1CCC2(CC1)CCN(C(=O)[C@H]1CCN(C(=O)c3cc(C(F)(F)F)cc(C(F)(F)F)c3)[C@H](Cc3ccccc3)C1)CC2` (stereo partly drawn) [Compound 188], the IC50 in assay [1] was 15.1 nM; in assay [2], 5500 nM; in assay [3] it was 3720 nM.

On to `O=C(c1ccsc1)N1CCC2(CC1)CCN(C(=O)[C@H]1CCN(C(=O)c3cc(C(F)(F)F)cc(C(F)(F)F)c3)[C@H](Cc3ccccc3)C1)CC2` [Compound 189], for which the values for the IC50 in assay [1], in assay [2] and in assay [3] were 28.8 nM, 6760 nM and more than 10000 nM, respectively.

Consider `Cc1nnsc1C(=O)N1CCC2(CC1)CCN(C(=O)[C@H]1CCN(C(=O)c3cc(C(F)(F)F)cc(C(F)(F)F)c3)[C@H](Cc3ccccc3)C1)CC2` [Compound 190], for which the values for the IC50 in assay [1], in assay [2] and in assay [3] were 6.17 nM, 1620 nM and 3550 nM, respectively.

For the molecule `CC(C)CN1CCC2(CCN([C@@H]3CCN(C(=O)c4cc(C(F)(F)F)cc(C(F)(F)F)c4)[C@H](Cc4ccccc4)C3)CC2)CC1=O` [Compound 193], the IC50 in assay [1] was 240 nM; in assay [2] it was 2510 nM; in assay [3], 5750 nM.

In the case of `O=C1CC2(CCN1CC1CC1)CCN(C1CCN(C(=O)c3cc(C(F)(F)F)cc(C(F)(F)F)c3)C(Cc3ccccc3)C1)CC2` (stereo not drawn) [Compound 195], the IC50 in assay [1] was 53.7 nM; in assay [2] it was approximately 1410 nM; in assay [3] it was 1450 nM.

`O=C1CC2(CCN1CC1CCC1)CCN([C@@H]1CCN(C(=O)c3cc(C(F)(F)F)cc(C(F)(F)F)c3)[C@H](Cc3ccccc3)C1)CC2` [Compound 197]: the IC50 in assay [1] was 191 nM; in assay [2], 2880 nM; in assay [3] it was 6460 nM.

With `O=C1CC2(CCN1Cc1ccoc1)CCN([C@@H]1CCN(C(=O)c3cc(C(F)(F)F)cc(C(F)(F)F)c3)[C@H](Cc3ccccc3)C1)CC2` [Compound 198], the IC50 is 339 nM in assay [1], 4790 nM in assay [2] and more than 10000 nM in assay [3].

On to `O=C1CC2(CCN1Cc1ccoc1)CCN([C@H]1CCN(C(=O)c3cc(C(F)(F)F)cc(C(F)(F)F)c3)[C@H](Cc3ccccc3)C1)CC2` [Compound 199], for which the figures for the IC50 in assay [1], in assay [2] and in assay [3] were 37.2 nM, 2750 nM and 851 nM, respectively.

Consider `Cc1noc(C)c1CN1CCC2(CCN([C@H]3CCN(C(=O)c4cc(C(F)(F)F)cc(C(F)(F)F)c4)[C@H](Cc4ccccc4)C3)CC2)CC1=O` [Compound 200], for which the IC50 in assay [1] was 23.4 nM; in assay [2] it was 1450 nM; in assay [3], 6920 nM.

Regarding `Cc1noc(C)c1CN1CCC2(CCN([C@@H]3CCN(C(=O)c4cc(C(F)(F)F)cc(C(F)(F)F)c4)[C@H](Cc4ccccc4)C3)CC2)CC1=O` [Compound 201], the figures for the IC50 in assay [1], in assay [2] and in assay [3] were 219 nM, 2820 nM and approximately 10000 nM, respectively.

As for `O=C1CC2(CCN1Cc1ccccc1F)CCN([C@H]1CCN(C(=O)c3cc(C(F)(F)F)cc(C(F)(F)F)c3)[C@H](Cc3ccccc3)C1)CC2` [Compound 202], the IC50 in assay [1] is 245 nM; in assay [2] it was 4570 nM; in assay [3] it was 7240 nM.
